Read-outs that look alike come from different tables or passages of the source.
Columns and labels:
mature adipocytes = experiment: Alamar blue (resazurin) cell viability assay on mature adipocytes, surrogate for adipocytolytic potential; type: cell-based, human; details: for IC50: viability, 48 hrs after compound incubation; for lower IC50 value compared to deoxycholic acid (difference, higher adipocytolytic effect): IC50 ratio versus deoxycholic acid, preadipocytes and adipocytes
Method: (§1) The following experimental setup was used for determination of adipocytolytic potential of test compounds with preadipocytes and mature adipocytes: • Primary human preadipocytes (PromoCell) were seeded in Preadipocyte Growth Medium at 45000 cells/cm^2 to allow attachment overnight. Cells were cultured at 37°C and 5% CO2 until postconfluence. Differentiation was started with incubation of cells in Differentiation Medium for 7 days followed by incubation in Nutrition medium for further 14 days. After differentiation process, mature adipocytes were incubated with indicated concentration of indicated triterpenes.
(§2) 6 replicates of each test compound concentration were tested. Each plate included a negative control and a compound interference control (for all concentrations, duplicates).
(§3) Cell viability as surrogate for adipocytolytic potential of compounds were analysed by alamar blue assay. In brief, 20µl of a 0,1mg/ml Resazurin sodium salt (Sigma; R7017-1 G) solution was added to each well 48 hrs after compound incubation. The cells were incubated for 90 min at 37°C and 5% CO2 and the resulting conversion of resazurin to resorufin was measured by a fluorescence plate reader at 590 nm. Vehicle controls were set as 100%. IC50-values were analysed using SigmaBlotV13.

[1] = system: Primary human preadipocytes; experiment: Alamar blue (resazurin) cell viability assay on preadipocytes; type: cell-based; details: for viability at 10 µM / viability at 30 µM / viability at 50 µM / viability at 100 µM / viability at 300 µM: read-out: Viability Preadipocytes (%); for IC50: viability, 48 hrs after compound incubation, read-out: IC50 [µM] Pre-ad ipocytes
Method: as §1, §2, §3

adipocytes [2] = experiment: Caspase-Glo 3/7 Assay, apoptosis induction in adipocytes; type: cell-based, human; details: for Apoptosis Adipocytes (%): basal apoptosis (vehicle) = 100%
Method: as §1
For analysing the potential of compounds to induce apoptosis the Caspase-Glo® 3/7 Assay (Promega) was used as recommended by the supplier. In brief, 100µl Caspase Reagent were added to 100µl cell culture medium and cells were incubated at 37°C and 5% CO2 for 1 hr. Luminescence signal was measured with a SynergyH4 plate reader. Vehicle controls were used to define basal apoptosis as 100%. Table 1 Impact on viability of adipocytes after 48h incubation with indicated compound in increasing concentration

adipocytes [3] = experiment: LDH release from adipocytes (indicative for membrane damage); type: cell-based, human; details: compared with deoxycholate; far not as high as 4fold
[4] = Homo sapiens, Adipocyte, 48 h, 10 µM, 48h incubation, vehicle controls = 100%, read-out: Viability Adipocytes (%)
[5] = Homo sapiens, Adipocyte, 48 h, 30 µM, 48h incubation, vehicle controls = 100%, read-out: Viability Adipocytes (%)
[6] = Homo sapiens, Adipocyte, 48 h, 50 µM, 48h incubation, vehicle controls = 100%, read-out: Viability Adipocytes (%)
[7] = Homo sapiens, Adipocyte, 48 h, 100 µM, 48h incubation, vehicle controls = 100%, read-out: Viability Adipocytes (%)
[8] = Homo sapiens, Adipocyte, 48 h, 300 µM, 48h incubation, vehicle controls = 100%, read-out: Viability Adipocytes (%)
[9] = 10 µM, 48h incubation, vehicle controls = 100%
[10] = 30 µM, 48h incubation, vehicle controls = 100%
[11] = 50 µM, 48h incubation, vehicle controls = 100%
[12] = 100 µM, 48h incubation, vehicle controls = 100%
[13] = 300 µM, 48h incubation, vehicle controls = 100%
[14] = Homo sapiens, Adipocyte, 48 h, read-out: Viability Adipocytes (%), 10 µM, 48h incubation, vehicle controls = 100%
[15] = Homo sapiens, Adipocyte, 48 h, read-out: Viability Adipocytes (%), 30 µM, 48h incubation, vehicle controls = 100%
[16] = Homo sapiens, Adipocyte, 48 h, read-out: Viability Adipocytes (%), 50 µM, 48h incubation, vehicle controls = 100%
[17] = Homo sapiens, Adipocyte, 48 h, read-out: Viability Adipocytes (%), 100 µM, 48h incubation, vehicle controls = 100%
[18] = Homo sapiens, Adipocyte, 48 h, read-out: Viability Adipocytes (%), 300 µM, 48h incubation, vehicle controls = 100%

Row | SMILES | viability at 10 µM (mature adipocytes; [4]) | viability at 30 µM (mature adipocytes; [5]) | viability at 50 µM (mature adipocytes; [6]) | viability at 100 µM (mature adipocytes; [7]) | viability at 300 µM (mature adipocytes; [8]) | IC50 (mature adipocytes; Homo sapiens, Adipocyte) | viability at 10 µM [1, 9] | viability at 30 µM [1, 10] | viability at 50 µM [1, 11] | viability at 100 µM [1, 12] | viability at 300 µM [1, 13] | IC50 [1] | viability at 10 µM (mature adipocytes; [14]) | viability at 30 µM (mature adipocytes; [15]) | viability at 50 µM (mature adipocytes; [16]) | viability at 100 µM (mature adipocytes; [17]) | viability at 300 µM (mature adipocytes; [18]) | viability at 30 µM ([1]; 48 h) | viability at 50 µM ([1]; 48 h) | viability at 100 µM ([1]; 48 h) | other results
1 | C=C(C)[C@@H]1CC[C@]2(C(=O)O)CC[C@]3(C)[C@H](CC[C@@H]4[C@@]5(C)CC[C@H](O)C(C)(C)[C@@H]5CC[C@]43C)[C@@H]12 [Betulinic acid, (3β)-3-hydroxy-lup-20(29)-en-28-oic acid] | 104% | 85.6% | 70.7% | 32.3% | 4.9% | 72 µM | 81.8% | 48.5% | 45.1% | 17.5% | 0.45% | 35.5 µM |  |  |  |  |  |  |  |  | 
2 | C[C@H]1[C@H](C)CC[C@]2(C(=O)O)CC[C@]3(C)C(=CC[C@@H]4[C@@]5(C)C[C@@H](O)[C@H](O)C(C)(C)[C@@H]5CC[C@]43C)[C@H]12 [Corosolic acid, (1S,2R,4aS,6aR,6aS,6bR,8aR,10R, 11R,12aR,14bS)-10,11-Dihydroxy-1,2,6a,6b,9,9,12a-heptamethyl-2,3,4,5,6,6a,7,8,8a,10,11,12,13,14b-tetradecahydro-1H-picene-4a-carboxylic acid] |  |  |  |  |  | 45 µM |  |  |  |  |  | 43.1 µM | 92.9% | 60.5% | 45.3% | 6.06% | 0.47% | 68.6% | 20.4% | 0% | viability at 10 µM ([1]; 48 h): 94.7%; viability at 300 µM ([1]; 48 h): 0%
3 | C[C@H](CCC(=O)O)[C@H]1CC[C@H]2[C@@H]3CC[C@@H]4C[C@H](O)CC[C@]4(C)[C@H]3C[C@H](O)[C@]12C [Deoxycholic acid, reference compound] | 107% |  | 95.6% | 94.3% | 22.1% | 244 µM | 96.2% | 92.8% | 95.6% | 98% | 26.1% | 232 µM |  |  |  |  |  |  |  |  | viability at 200 µM (mature adipocytes; Homo sapiens, Adipocyte, 48 h, 200 µM, concentration required for 50%-decrease in viability): ~50%
4 | CC1(C)CC[C@]2(C(=O)O)CC[C@]3(C)C(=CC[C@@H]4[C@@]5(C)C[C@@H](O)[C@H](O)C(C)(C)[C@@H]5CC[C@]43C)[C@@H]2C1 [Maslinic acid, (4aS,6aR,6aS,6bR,8aR,10R,11R,12aR,14bS)-10,11-dihydroxy-2,2,6a,6b,9,9,12a-heptamethyl-1,3,4,5,6,6a,7,8,8a,10,11,12,13,14b-tetradecahydropicene-4a-carboxylic acid] | 96.9% | 76.7% | ~50% | 4.86% | 0.3% | 53.4 µM | 96.4% | 76% | 45.6% | 2.42% | 0% | 54.3 µM |  |  |  |  |  |  |  |  | Viability Adipocytes (%) (mature adipocytes; [11]): 47.08%; Apoptosis Adipocytes (%) (adipocytes [2]; 30 µM, 6 hrs): 97.17%; Apoptosis Adipocytes (%) (adipocytes [2]; 30 µM, 48hrs): 121.70%; Apoptosis Adipocytes (%) (adipocytes [2]; 50 µM, 6 hrs): 126.43%; Apoptosis Adipocytes (%) (adipocytes [2]; 50 µM, 48hrs): 116.95%; max. apoptosis induction over basal levels (adipocytes [2]; 100 µM after 6 hrs): 6.6 fold; Apoptosis Adipocytes (%) (adipocytes [2]; 100 µM, 6 hrs): 662.48%; Apoptosis Adipocytes (%) (adipocytes [2]; 100 µM, 48hrs): 304.15%; Apoptosis Adipocytes (%) (adipocytes [2]; 200 µM, 48hrs): 378.25%; Apoptosis Adipocytes (%) (adipocytes [2]; 300 µM, 6 hrs): 398.94%; Apoptosis Adipocytes (%) (adipocytes [2]; 300 µM, 48hrs): 238.76%; pro-apoptotic capacity (adipocytes [2]; summary of the apoptosis data): clear pro-apoptotic capacity; LDH release (indicative for membrane damage) from the adipocytes (adipocytes [3]): higher
5 | CC1(C)CC[C@]2(C(=O)O)CC[C@]3(C)C(=CC[C@@H]4[C@@]5(C)CC[C@H](O)C(C)(C)[C@@H]5CC[C@]43C)[C@@H]2C1 [Oleanolic acid, (4aS,6aR,6aS,6bR,8aR,10S,12aR,14bS)-10-hydroxy-2,2,6a,6b,9,9,12a-heptamethyl-1,3,4,5,6,6a,7,8,8a,10,11,12,13,14b-tetradecahydropicene-4a-carboxylic acid] |  |  |  |  |  | 92.8 µM |  |  |  |  |  | 125 µM | 114% | 110% | 117% | 32.4% | 15.8% | 79.1% | 83.4% | 53.3% | lower IC50 value compared to deoxycholic acid (difference, higher adipocytolytic effect) (mature adipocytes): 2.5 fold; viability at 300 µM ([1]; 48 h): 0%
6 | C[C@H]1[C@H](C)CC[C@]2(C(=O)O)CC[C@]3(C)C(=CC[C@@H]4[C@@]5(C)CC[C@H](O)C(C)(C)[C@@H]5CC[C@]43C)[C@H]12 [Ursolic acid, (1S,2R,4aS,6aR,6aS,6bR,8aR,10S,12aR,14bS)-10-hydroxy-1,2,6a,6b,9,9,12a-heptamethyl-2,3,4,5,6,6a,7,8,8a,10,11,12,13,14b-tetradecahydro-1H-picene-4a-carboxylic acid] | 92.4% | 28.9% | 14.9% | 13.4% | 10.3% | 24.4 µM | 74.8% | 12.7% | 0.32% | 0% | 0% | 20.1 µM |  |  |  |  |  |  |  |  | lower IC50 value compared to deoxycholic acid (difference, higher adipocytolytic effect) (mature adipocytes): about 10 fold

— patent publication EP3124047A1, “PENTACYCLIC TRITERPENOIDS FOR INJECTION LIPOLYSIS” (Merz Pharma GmbH & Co. KGaA, priority 2015, dated 2017)
